pIC50: −log10 of the molar value. Structures can show the parent of a compound that is named as a salt.
The compounds below were run against T1, lysyl oxidase (Bos taurus, UniProt P33072) (assay: Lysyl oxidase inhibition (fluorometric assay, cadaverine substrate, horseradish peroxidase/homovanillic acid)). Details: lysyl oxidase preparation from bovine aorta, 55° C., 10 minutes, pH 8.2 borate buffer, read-out: IC50 (concentration of test compound required to inhibit the enzyme activity by 50 percent).
T1 sequence (P33072 170-418): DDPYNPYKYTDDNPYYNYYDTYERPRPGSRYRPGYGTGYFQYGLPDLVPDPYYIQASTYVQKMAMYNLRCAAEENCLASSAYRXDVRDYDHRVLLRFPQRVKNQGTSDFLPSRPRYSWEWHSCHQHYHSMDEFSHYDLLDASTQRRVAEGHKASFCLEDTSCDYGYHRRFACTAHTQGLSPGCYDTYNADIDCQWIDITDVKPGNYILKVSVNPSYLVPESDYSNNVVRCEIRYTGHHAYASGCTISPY
Assay type: biochemical
Experimental: Lysyl oxidase preparation is obtained from bovine aorta by the procedures modified from M. A. Williams and H. M. Kagan, Anal. Biochem. 149, 430-437 (1985) and H. M. Kagan and K. A. Sullivan, Methods in Enzyml. 82, 637-650 (1982). The aorta is obtained fresh on the day of the enzyme preparation and is maintained at 4° C. for the duration of its use in the experiments. The aorta is ground fine and is homogenized for 90 seconds in buffer (2.5 ml of a buffer consisting of 16 mM potassium phosphate and 1 mM phenylmethylsulfonyl fluoride/g of tissue) with 0.15M NaCl added, then the mixture is centrifuged (20 minutes at 11,000×g). The homogenization followed by centrifugation procedure is repeated with buffer plus 0.15 M NaCl, buffer alone, and buffer plus 1M urea. After homogenization in 1M urea, the mixture is stirred for 1 hour prior to centrifugation. The resulting pellet is homogenized in buffer plus 4M urea, stirred for 18 hours, and centrifuged. The supernatant with lysyl oxidase activity is saved. The tissue is homogenized in buffer plus 4M urea, stirred overnight, and centrifuged twice more. The supernatants with lysyl oxidase activity are saved.
The assay is adopted from that of P. C. Trackman, et al., Anal. Biochem. 113, 336-342 (1981). Each assay consists of two tubes, one that contains 0.2 mM β-aminopropionitrile, BAPN, from the start and one to which BAPN is added to quench the reaction. Lysyl oxidase preparation (0.150 ml), urea (0.300 ml, 4M), buffer (0.930 ml, 200 mM borate at pH =8.2), homovanillic acid (0.020 ml of 50 mM solution), and horseradish peroxidase (0.010 ml of Sigma Type II at 5 mg/ml protein) are incubated for 2 minutes at 55° C. in a test tube. Cadaverine (0.100 ml of 150 mM) and test compound, if any, is added and the incubation continued at 55° C. for an additional 10 minutes. The test tubes containing this mixture are then cooled in a ice bath after adding BAPN to any tubes not containing it. The difference in fluorescence (excitation 315 nm and emission 425 nm) between corresponding tubes that received BAPN at 0 minutes and at 10 minutes is a measure of enzyme activity. A standard curve to determine the amount of cadaverine converted by lysyl oxidase is prepared as follows. Assay mixtures containing BAPN are made up as described and known amounts of hydrogen peroxide are added simultaneously with cadaverine and the fluorescence changes after 10 minutes reaction are determined.
Using this method the lysyl oxidase inhibiting activity expressed as IC50 (inhibitory concentration), that is the concentration of test compound required to inhibit the enzyme activity by 50 percent, was determined for various compounds of this invention.
`C=C=C(CN)CCCCCC` [β-Ethenylidene-1-Octanamine Hydrochloride] gave a pIC50 of 9.00. In the case of `C=C=C(CN)c1cccs1` [β-Ethenylidene-2-Thiopheneethanamine-4-Methylbenzenesulfonate], the pIC50 was 8.00. For `C=C=C(CN)c1ccc(OC)cc1` [β-Ethenylidene-4-Methoxybenzeneethanamine-4-Methylbenzenesulfonate], the pIC50 was 8.00. For `C=C=C(CN)CCc1ccccc1` [β-Ethenylidenebenzenebutanamine Hydrochloride], the pIC50 was 9.00. In the case of `C=C=C(CN)CCCc1ccccc1` [β-Ethenylidenebenzenepentanamine Hydrochloride], the pIC50 was 9.00. Compound `C=C=C(CN)c1cc2ccccc2s1` [β-Ethylenylidene-Benzo[β]Thiophene-2-Ethanamine Hydrochloride] has a pIC50 of 8.00.
